Data published in patent US20240425500A1 (priority 2021, published 2024).

Assays:
[1] = test system: Phytophthora infestans; assay: whole plant or invertebrate; format: in vivo; settings: in Solanum lycopersicum, foliar, read-out: control of Phytophthora infestans compared to untreated control
[2] = test system: Plasmopara viticola; assay: whole plant or invertebrate; format: in vivo; settings: foliar, read-out: control of Plasmopara viticola compared to untreated control
[3] = test system: Pythium ultimum; assay: Pythium ultimum / liquid culture (seedling damping off); format: cell-based; settings: Globisporangium ultimum, liquid culture in PDB, 24 °C, 2-3 days after application, read-out: control of Pythium ultimum (inhibition of growth, photometric) compared to untreated control
How it was run: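 Mycelia fragments and oospores from fresh liquid culture mixed into potato dextrose broth and added to compound in DMSO. Incubated at 24° C.; growth inhibition read photometrically 2–3 days after application.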

COC(=O)Nc1ccc(-c2cnc3ccc(C(=O)N(C)c4ccc(Cl)c(OC)c4)cn23)cn1 [Compound 75, methyl N-[5-[6-[(4-chloro-3-methoxy-phenyl)-methyl-carbamoyl]imidazo[1,2-a]pyridin-3-yl]-2-pyridyl]carbamate]
≥ 80%: pest or weed control at 200 ppm [1] | pest or weed control at 200 ppm [2] | inhibition at 20 ppm [3]

COC(=O)Nc1ccc(-c2cnc3c(C)cc(C(=O)N(C)c4ccc(Cl)cc4)cn23)cc1 [Compound 19, methyl N-[4-[6-[(4-chlorophenyl)-methyl-carbamoyl]-8-methyl-imidazo[1,2-a]pyridin-3-yl]phenyl]carbamate]
≥ 80%: pest or weed control at 200 ppm [1] | pest or weed control at 200 ppm [2] | inhibition at 20 ppm [3]

COCc1cc(C(=O)N(C)c2ccc(F)cc2)cn2c(-c3ccc(NC(=O)OC)nc3)cnc12 [Compound 172, methyl N-[5-[6-[(4-fluorophenyl)-methyl-carbamoyl]-8-(methoxymethyl)imidazo[1,2-a]pyridin-3-yl]-2-pyridyl]carbamate]
≥ 80%: pest or weed control at 200 ppm [1] | pest or weed control at 200 ppm [2] | inhibition at 20 ppm [3]

CCN(C(=O)c1ccc2ncc(-c3ccc(NC(=O)OC)cc3)n2c1)c1ccc(Cl)cc1 [Compound 32, methyl N-[4-[6-[(4-chlorophenyl)-ethyl-carbamoyl]imidazo[1,2-a]pyridin-3-yl]phenyl]carbamate]
≥ 80%: pest or weed control at 200 ppm [1] | pest or weed control at 200 ppm [2] | inhibition at 20 ppm [3]

COC(=O)Nc1ccc(-c2cnc3ccc(C(=O)N(C)c4ccc(Cl)c(C)c4)cn23)cn1 [Compound 46, methyl N-[5-[6-[(4-chloro-3-methyl-phenyl)-methyl-carbamoyl]imidazo[1,2-a]pyridin-3-yl]-2-pyridyl]carbamate]
≥ 80%: pest or weed control at 200 ppm [1] | pest or weed control at 200 ppm [2] | inhibition at 20 ppm [3]

COC(=O)Nc1ccc(-c2cnc3ccc(C(=O)N(C)c4cccc(OC)c4)cn23)cc1 [Compound 7, methyl N-[4-[6-[(3-methoxyphenyl)-methyl-carbamoyl]imidazo[1,2-a]pyridin-3-yl]phenyl]carbamate]
≥ 80%: pest or weed control at 200 ppm [1] | pest or weed control at 200 ppm [2] | inhibition at 20 ppm [3]

CCN(C(=O)c1ccc2ncc(-c3ccc(NC(=O)OC)nc3)n2c1)c1cccc(OC)c1 [Compound 124, methyl N-[5-[6-[ethyl-(3-methoxyphenyl)carbamoyl]imidazo[1,2-a]pyridin-3-yl]-2-pyridyl]carbamate]
≥ 80%: pest or weed control at 200 ppm [1] | pest or weed control at 200 ppm [2] | inhibition at 20 ppm [3]

CCN(C(=O)c1ccc2ncc(-c3ccc(NC(=O)OC)nc3)n2c1)c1ccc(F)c(C)c1 [Compound 116, methyl N-[5-[6-[ethyl-(4-fluoro-3-methyl-phenyl)carbamoyl]imidazo [1,2-a]pyridin-3-yl]-2-pyridyl]carbamate]
≥ 80%: pest or weed control at 200 ppm [1] | pest or weed control at 200 ppm [2] | inhibition at 20 ppm [3]

COC(=O)Nc1ccc(-c2cnc3ccc(C(=O)N(C)c4ccc(F)c(OC)c4)cn23)cn1 [Compound 45, methyl N-[5-[6-[(4-fluoro-3-methoxy-phenyl)-methyl-carbamoyl]imidazo[1,2-a]pyridin-3-yl]-2-pyridyl]carbamate]
≥ 80%: pest or weed control at 200 ppm [1] | pest or weed control at 200 ppm [2] | inhibition at 20 ppm [3]

COC(=O)Nc1ccc(-c2cnc3ccc(C(=O)N(C)c4ccc(F)c(O)c4)cn23)cn1 [Compound 96, methyl N-[5-[6-[(4-fluoro-3-hydroxy-phenyl)-methyl-carbamoyl]imidazo[1,2-a]pyridin-3-yl]-2-pyridyl]carbamate]
≥ 80%: pest or weed control at 200 ppm [1] | pest or weed control at 200 ppm [2] | inhibition at 20 ppm [3]

COC(=O)Nc1ccc(-c2cnc3c(C)cc(C(=O)N(C)c4ccc(F)c(Cl)c4)cn23)cn1 [Compound 171, methyl N-[5-[6-[(3-chloro-4-fluoro-phenyl)-methyl-carbamoyl]-8-methyl-imidazo[1,2-a]pyridin-3-yl]-2-pyridyl]carbamate]
≥ 80%: pest or weed control at 200 ppm [1] | pest or weed control at 200 ppm [2] | inhibition at 20 ppm [3]

COCN(C(=O)c1ccc2ncc(-c3ccc(NC(=O)OC)nc3)n2c1)c1ccc(F)c(OC)c1 [Compound 93, methyl N-[5-[6-[(4-fluoro-3-methoxy-phenyl)-(methoxymethyl)carbamoyl]imidazo[1,2-a]pyridin-3-yl]-2-pyridyl]carbamate]
≥ 80%: pest or weed control at 200 ppm [1] | pest or weed control at 200 ppm [2] | inhibition at 20 ppm [3]

COC(=O)Nc1ccc(-c2cnc3ccc(C(=O)N(C)c4ccc(F)cc4)cn23)cc1 [Compound 11, methyl N-[4-[6-[(4-fluorophenyl)-methyl-carbamoyl]imidazo[1,2-a]pyridin-3-yl]phenyl]carbamate]
≥ 80%: pest or weed control at 200 ppm [1] | pest or weed control at 200 ppm [2] | inhibition at 20 ppm [3]

COC(=O)Nc1ccc(-c2cnc3c(C)cc(C(=O)N(C)c4ccc(F)cc4)cn23)cn1 [Compound 82, methyl N-[5-[6-[(4-fluorophenyl)-methyl-carbamoyl]-8-methyl-imidazo[1,2-a]pyridin-3-yl]-2-pyridyl]carbamate]
≥ 80%: pest or weed control at 200 ppm [1] | pest or weed control at 200 ppm [2] | inhibition at 20 ppm [3]

COC(=O)Nc1ccc(-c2cnc3c(Br)cc(C(=O)N(C)c4ccc(F)cc4)cn23)cn1 [Compound 98, methyl N-[5-[8-bromo-6-[(4-fluorophenyl)-methyl-carbamoyl]imidazo[1,2-a]pyridin-3-yl]-2-pyridyl]carbamate]
≥ 80%: pest or weed control at 200 ppm [1] | pest or weed control at 200 ppm [2] | inhibition at 20 ppm [3]

COC(=O)Nc1ccc(-c2cnc3ccc(C(=O)N(C)c4ccc(C#N)cc4)cn23)cc1 [Compound 6, methyl N-[4-[6-[(4-cyanophenyl)-methyl-carbamoyl]imidazo[1,2-a]pyridin-3-yl]phenyl]carbamate]
≥ 80%: pest or weed control at 200 ppm [1] | pest or weed control at 200 ppm [2] | inhibition at 20 ppm [3]

COC(=O)Nc1ccc(-c2cnc3ccc(C(=O)N(C)c4cccc(I)c4)cn23)cn1 [Compound 73, methyl N-[5-[6-[(3-iodophenyl)-methyl-carbamoyl]imidazo[1,2-a]pyridin-3-yl]-2-pyridyl]carbamate]
≥ 80%: pest or weed control at 200 ppm [1] | pest or weed control at 200 ppm [2] | inhibition at 20 ppm [3]

COC(=O)Nc1ccc(-c2cnc3ccc(C(=O)N(CC#N)c4ccc(F)c(OC)c4)cn23)cn1 [Compound 89, methyl N-[5-[6-[cyanomethyl-(4-fluoro-3-methoxy-phenyl)carbamoyl]imidazo [1,2-a]pyridin-3-yl]-2-pyridyl]carbamate]
≥ 80%: pest or weed control at 200 ppm [1] | pest or weed control at 200 ppm [2] | inhibition at 20 ppm [3]

CCN(C(=O)c1ccc2ncc(-c3ccc(NC(=O)OC)nc3)n2c1)c1ccc(F)c(OC)c1 [Compound 178, methyl N-[5-[6-[ethyl-(4-fluoro-3-methoxy-phenyl)carbamoyl]imidazo [1,2-a]pyridin-3-yl]-2-pyridyl]carbamate]
≥ 80%: pest or weed control at 200 ppm [1] | pest or weed control at 200 ppm [2] | inhibition at 20 ppm [3]

COC(=O)Nc1ccc(-c2cnc3ccc(C(=O)N(C)c4ccc(C#N)c(C)c4)cn23)cn1 [Compound 53, methyl N-[5-[6-[(4-cyano-3-methyl-phenyl)-methyl-carbamoyl]imidazo[1,2-a]pyridin-3-yl]-2-pyridyl]carbamate]
≥ 80%: pest or weed control at 200 ppm [1] | pest or weed control at 200 ppm [2] | inhibition at 20 ppm [3]

COCCN(C(=O)c1ccc2ncc(-c3ccc(NC(=O)OC)nc3)n2c1)c1ccc(F)cc1 [Compound 76, methyl N-[5-[6-[(4-fluorophenyl)-(2-methoxyethyl)carbamoyl]imidazo[1,2-a]pyridin-3-yl]-2-pyridyl]carbamate]
≥ 80%: pest or weed control at 200 ppm [1] | pest or weed control at 200 ppm [2] | inhibition at 20 ppm [3]

COC(=O)Nc1ccc(-c2cnc3cc(C)c(C(=O)N(C)c4ccc(F)cc4)cn23)cn1 [Compound 86, methyl N-[5-[6-[(4-fluorophenyl)-methyl-carbamoyl]-7-methyl-imidazo[1,2-a]pyridin-3-yl]-2-pyridyl]carbamate]
≥ 80%: pest or weed control at 200 ppm [1] | pest or weed control at 200 ppm [2] | inhibition at 20 ppm [3]

COC(=O)Nc1ccc(-c2cnc3ccc(C(=O)N(C)c4ccnc(OC)c4)cn23)cc1 [Compound 26, methyl N-[4-[6-[(2-methoxy-4-pyridyl)-methyl-carbamoyl]imidazo[1,2-a]pyridin-3-yl]phenyl]carbamate]
≥ 80%: pest or weed control at 200 ppm [1] | pest or weed control at 200 ppm [2] | inhibition at 20 ppm [3]

COC(=O)Nc1ccc(-c2cnc3ccc(C(=O)N(C)c4cccc(C(F)F)c4)cn23)cn1 [Compound 57, methyl N-[5-[6-[[3-(difluoromethyl)phenyl]-methyl-carbamoyl]imidazo[1,2-a]pyridin-3-yl]-2-pyridyl]carbamate]
≥ 80%: pest or weed control at 200 ppm [1] | pest or weed control at 200 ppm [2] | inhibition at 20 ppm [3]

COC(=O)Nc1ccc(-c2cnc3ccc(C(=O)N(C)c4ccc(F)cc4)cn23)cn1 [Compound 25, methyl N-[5-[6-[(4-fluorophenyl)-methyl-carbamoyl]imidazo[1,2-a]pyridin-3-yl]-2-pyridyl]carbamate]
≥ 80%: pest or weed control at 200 ppm [1] | pest or weed control at 200 ppm [2] | inhibition at 20 ppm [3]

COC(=O)Nc1ccc(-c2cnc3ccc(C(=O)N(C)c4cccc(OC)c4)cn23)cn1 [Compound 63, methyl N-[5-[6-[(3-methoxyphenyl)-methyl-carbamoyl]imidazo[1,2-a]pyridin-3-yl]-2-pyridyl]carbamate]
≥ 80%: pest or weed control at 200 ppm [1] | pest or weed control at 200 ppm [2] | inhibition at 20 ppm [3]
